Measurements from US10105380B2, “Glycoclusters and their pharmaceutical use as antibacterials” (priority 2013, dated 2018).
Read-outs that look alike come from different tables or passages of the source.

Assays:
Format in all cases: binding
PA-IL [1] = target: T1, PA-IL (Pseudomonas aeruginosa, UniProt Q05097); conditions: for Potency vs EG3-O-Gal: ratio of IC50Lac to mono EG3-O-galactose (entry 1); for Potency vs AcNPhe-O-Gal: ratio of IC50Lac to mono-aromatic galactose 31 (entry 2)
Method: IC50 Determination with “on Chip” Biological Recognition
Lectin PA-IL (0.12 μM final concentration), BSA (2% final concentration) and CaCl2 (1 μg/mL final concentration) was diluted in PBS1× (pH=7.4). In each micro tube was added the inhibitor lactose at the desired final concentration (0; 1.10^−5; 1.10^−4; 5.10^−4; 1.10^−3; 5.10^−3; 1.10^−2; 5.10^−2; 0.1; 1; 5; 10; 50; 10^2; 5.10^2; 10^3; 5.10^3; 10^4; 10^5; 3.10^5).
2 μL of each solution were deposited in the corresponding microwells and the slide was incubated at 37° C. in a water vapor saturated chamber for 3 h. The washing steps are: PBS-Tween0.2% 5 min at 4° C., then briefly in deionized water and dried by centrifugation.
Slide was scanned at 532 nm then at 635 nm with the Microarray scanner, GenePix 4100A software package (Axon Instruments; λex 532/635 nm and λem 575/670 nm). The fluorescence signal of each conjugate was determined as the average of the mean fluorescence signal of sixty-four spots.
IC50 values were determined using “BioDataFit 1.02 program”. The model chosen was “Sigmoidal”: Y=a+(b−a)/[1+10^(x−c)]
with a=FImin, b=FImax, x=[…] and c=log(IC50). FImin/max is the minimum/maximum Alexa-647 fluorescence signal observed for a galactomimetic.
So the IC50 value was called IC50Lac.

PA-IL [2] = target: T1, PA-IL; assay: Surface Plasmon Resonance (SPR) inhibition; conditions: IC50 of Gal-ArNO2 over IC50 of the molecule
Method: (§1) The binding of PA-IL to galactoclusters was probed as the ability of the clusters to inhibit the binding of PA-IL to rabbit erythrocytes (Hemagglutination inhibition assay, HIA) or to surface bound galactosyl modified polyacrylamide either by Surface Plasmon Resonance (SPR), Enzyme Linked Assay (ELLA) Inhibition was measured with competitive assays. In HIA experiments, the minimal inhibitory concentration (MIC) is the minimal concentration of galactocluster that inhibit the hemagglutination of rabbit erythrocytes in presence of the lectin. The lower the MIC the highest is the binding of the galactocluster to the lectin. SPR and ELLA were used to determine the IC50 value. […] The lower the IC50 value as determined by SPR (^SPRIC50) and ELLA (^ELLAIC50), the higher is the binding of PA-IL to the galactocluster.
SPR inhibition experiments were performed using a Biacore 3000 instrument at 25° C. Measurements were carried out on two channels with two immobilized sugars: α-L-fucose (channel 1) and α-D-galactose (channel 2). Immobilization of sugars was performed at 25° C. using running buffer (HBS) at […]. Immobilization on each channel (CM5 Chip) was performed independently as follows. First, the channel was activated by injecting a fresh mixture of EDC/NHS (35 μL, 420 s). Then a solution of streptavidin ([…] in 0.1 mM AcONa pH 5 buffer) was injected (50 μL, 600 s). The remaining reactive species were quenched by injecting ethanolamine (1M, 35 μL, 420 s) into the solution. Finally, a solution of the desired biotinylated-polyacrylamide-sugar (lectinity, […]) was coated onto the surface (50 μL, 600 s) through streptavidin-biotin interaction. […] Inhibition studies consisted of the injection (150 μL, 10 μL·min^−1, dissociation 120 s) of incubated (>1 h, RT) mixtures of PAIL ([…]) and various concentrations of inhibitor (twofold cascade dilutions). […] The CM5 chip was fully regenerated by successive injections of d-galactose (2×30 μL, 100 mm in running buffer). Binding was measured as RU over time after blank subtraction, and data were then evaluated using the BIAevaluation Software version 4.1. For IC50 evaluation, the response (Req-fitted) was considered to be the amount of lectin bound to the carbohydrate-coated surface at equilibrium in the presence of a defined concentration of inhibitor. Inhibition curves were obtained by plotting the percentage of inhibition against the inhibitor concentration (on a logarithmic scale) by using Origin 7.0 software (OriginLab Corp.), and IC50 values were extracted from sigmoidal fit of the inhibition curve.
Microtiter plates were modified with PAA-galactose. […] The lowest the IC50 as determined the strongest is the binding of the studied molecule to PA-IL. […]

PA-IL [3] = target: T1, PA-IL; assay: Enzyme Linked Lectin Assay (ELLA), PAA-galactose coated plates; conditions: IC50 of Gal-ArNO2 over IC50 of the molecule
Method: as §1
96-Well microtiter plates (NuncMaxisorb) were coated with α-PAA-Gal(PAA=polyacrylamide) for PA-IL (Lectinity Holding, Inc.): 100 μL of 5 μg·mL^−1 in carbonate buffer, pH 9.6 for 1 h at 37° C., then blocking at 37° C. for 1 h with 100 μL per well of 3% (w/v) bovine serum albumin (BSA) in phosphate buffer solution (PBS). Lectin solutions (75 μL) were diluted (1:2) starting from 30 μg·mL^−1. After 1 h incubation at 37° C. and three washes with T-PBS (PBS that contained 0.05% Tween 20), horseradish peroxidase (HRP)-streptavidin conjugate (100 μL; dilution 2:8000; Boehringer-Mannheim) was added and left for 1 h at 37° C. Coloration was developed by using 100 μL per well of 0.05% phosphate/citrate buffer that contained o-phenylenediaminedihydrochloride ([…]) and urea hydrogen peroxide (0.4 mg·mL^−1) (OPD kit, Sigma-Aldrich) for 15 min and stopped with sulfuric acid (50 μL, 30%). Absorbance was then read at 490 nm using a microtiter plate reader (BioRad 680). The concentration of biotinylatedlectins was determined by plotting the relative absorbance versus lectin concentration. The concentration that led to the highest response in the linear area was selected as the standard lectin concentration for the subsequent inhibition experiments.
Microtiter plates were modified with PAA-galactose. Slides were incubated with increasing concentration of galactosylated ligands. […] The lowest the IC50 as determined the strongest is the binding of the studied molecule to PA-IL. ELLA: This IC50 will be referred here after ^ELLAIC50. SPR: This IC50 will be referred here after ^SPRIC50.

PA-IL [4] = target: T1, PA-IL; assay: Kd determination on DDI microarray (Langmuir isotherm, Scatchard plot); conditions: DNA-tagged galactoclusters G1-G24 on glycoarray
Method: The methodologies for Kd and IC50 value determination have been previously reported (Gerland, B. et al., (2012) Bioconjugate Chem. 23, 1534-1547; Zhang, J. et al., (2009) Chem. Comm., 6795-6797; Zhang, J. et al., (2009) Biosens. Bioelectron. 24, 2515-2521).
CaCl2 (1 μg/mL final concentration) was added. PA-IL at the desired final concentration was then added. 2 μL of each solution (corresponding to the desired PA-IL concentration) were poured in the corresponding microwells. The slide was incubated (3 h, 37° C.) in a water vapor saturated chamber and finally washed in PBS-Tween 20 (0.02%, 5 min, 4° C.) and dried. A Microarray scanner, GenePix 4100A software package (Axon Instruments; λex 532/635 nm and λem 575/670 nm) was used for fluorescent imaging of both fluorophore (Cy3 and Alexa 647). The average of the mean fluorescence signal was calculated from eight spots. The resulting Langmuir Isotherms were linearised using Scatchard plot to give the Kd values at the ordonnate intercept.

[5] = lactose concentration required to displace 50% of PA-IL from the glycocluster, higher = better binding, read-out: IC50Lac
[6] = DNA-tagged galactoclusters G1-G24 on glycoarray, read-out: IC50

T1 sequence (Q05097 2-122): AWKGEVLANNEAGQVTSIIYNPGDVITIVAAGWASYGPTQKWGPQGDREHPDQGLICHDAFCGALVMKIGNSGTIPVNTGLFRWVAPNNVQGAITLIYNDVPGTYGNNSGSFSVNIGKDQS

Substance: Man(POProTzAcNPhe-O-Gal)8 [compound 34]
- IC50 (PA-IL [1]; [5]): 6800 µM
- Potency vs EG3-O-Gal (PA-IL [1]): 1361
- Potency vs AcNPhe-O-Gal (PA-IL [1]): 425

Substance: Man(POProTzEG3-O-Gal)4
- SPR βAr (PA-IL [2]): 1.7
- ELLA βAr (PA-IL [3]): 1.2

Substance: Man(POProTzEG3-O-Gal)4 [C3]
- β (PA-IL [1]; Table 6, relative potency vs monovalent ligand 31): 1.8
- IC50 (PA-IL [1]; [5]): 29 µM
- Potency vs EG3-O-Gal (PA-IL [1]): 5.8
- Potency vs AcNPhe-O-Gal (PA-IL [1]): 1.8

Substance: Man(PSEG2MTzAcNPh-SGal)4 [G10]
- Kd (PA-IL [4]): 0.055 µM
- IC50 (PA-IL [1]; [6]): 38200 µM

Substance: Man(PSEG2MTzAcNPhe-CH2-Gal)4 [G6]
- Kd (PA-IL [4]): 0.17 µM
- IC50 (PA-IL [1]; [6]): 5700 µM

Substance: Man(PSEG2MTzAcNPhe-CH2-SGal)4 [G14]
- Kd (PA-IL [4]): 0.071 µM
- IC50 (PA-IL [1]; [6]): 18500 µM

Substance: Man(PSEG2MTzproNCONapht-OGal)4 [G22]
- Kd (PA-IL [4]): 0.02 µM

Substance: Man(PSEG3MTzAcNPh-Gal)4 [G4]
- Kd (PA-IL [4]): 0.076 µM
- IC50 (PA-IL [1]; [6]): 17700 µM

Substance: Man(PSEG3MTzAcNPh-SGal)4 [G12]
- Kd (PA-IL [4]): 0.07 µM
- IC50 (PA-IL [1]; [6]): 19700 µM

Substance: Man(PSEG3MTzAcNPhe-CH2-Gal)4 [G8]
- Kd (PA-IL [4]): 0.125 µM
- IC50 (PA-IL [1]; [6]): 8400 µM

Substance: Man(PSEG3MTzAcNPhe-CH2-SGal)4 [G16]
- Kd (PA-IL [4]): 0.075 µM
- IC50 (PA-IL [1]; [6]): 18100 µM

Substance: Man(PSEG3MTzproNCOBisphe-OGal)4 [G20]
- Kd (PA-IL [4]): 0.043 µM
- IC50 (PA-IL [1]; [6]): 81600 µM

Substance: Man(PSEG3MTzproNCONapht-OGal)4 [G24]
- Kd (PA-IL [4]): 0.031 µM

Substance: Man[POTHME(MTzAcNPhe-O-Gal)2]4 [compound 35]
- IC50 (PA-IL [1]; [5]): 1810 µM
- Potency vs EG3-O-Gal (PA-IL [1]): 361
- Potency vs AcNPhe-O-Gal (PA-IL [1]): 113
